Like-named read-outs stand apart in the source and are kept apart here.
Key:
Experiment in all cases: 1H–[…] HSQC NMR chemical shift titration
Format in all cases: binding
xylanase B2 (XlnB2) = xylanase B2 (XlnB2) (Streptomyces lividans, UniProt P26515)
XlnB2-E87A [1] = target: T1, XlnB2-E87A (Streptomyces lividans, UniProt P26515, E128A)
XlnB2-E87A [2] = target: T1, XlnB2-E87A; remark: listed apart in the source

| SMILES | Kd (xylanase B2 (XlnB2)) | Kd (XlnB2-E87A [1]) | Kd (XlnB2-E87A [2]) |
| --- | --- | --- | --- |
| OC1OC[C@@H](O[C@@H]2OC[C@@H](O)[C@H](O)[C@H]2O)[C@H](O)[C@H]1O (stereo partly drawn) [X2, xylobiose] | 7.07 mM | 8.71 mM | – |
| OC1OC[C@@H](O[C@@H]2OC[C@@H](O[C@@H]3OC[C@@H](O[C@@H]4OC[C@@H](O[C@@H]5OC[C@@H](O)[C@H](O)[C@H]5O)[C@H](O)[C@H]4O)[C@H](O)[C@H]3O)[C@H](O)[C@H]2O)[C@H](O)[C@H]1O (stereo partly drawn) [X5, xylopentaose] | – | – | 7.93 mM |

From paper PMC5374982 (Biochemistry, 2016)
